Here are results for one compound from article PMC3781034, “A Small-Animal Pharmacokinetic/Pharmacodynamic PET Study of Central Serotonin 1A Receptor Occupancy by a Potential Therapeutic Agent for Overactive Bladder” (PLoS ONE, 2013).

The Cmax is the highest concentration seen after dosing. As usually defined, the Tmax is the time at which the peak concentration occurs. As usually defined, the half-life is how long it takes for the measured level to halve.

The nature of one data set: PK study in rats (oral). Conditions: Sprague-Dawley, rat, plasma, 1 mg/kg oral; for AUC(0-t): read-out: AUC0-8hr. It is filed as in vivo. Here is the method:
E2110 was administered orally to male and female SD rats, (4 animals/sex) at a dose of 1 mg/kg. Blood samples were collected from the jugular veins by heparinized syringes at 0.25, 0.5, 1, 2, 4, 6, and 8 hours after dosing.
Concentrations of E2110 were determined in plasma or PBS by liquid chromatography - tandem mass spectrometry. Samples (5 µL) were injected into an L-column ODS (35 × 2.1 mm; 5 µM, Chemical Evaluation and Research Institute, Tokyo, Japan) with a flow rate of 0.6 mL/min. We used 0.1% formic acid in water and acetonitrile as mobile phase A and B, respectively. The gradient elution started with a gradient from 0% to 100% mobile phase B for 2 min, then 1 min of 100% B, followed by a gradient of 100% to 0% for 0.01 min at the end, at a flow rate of 0.6 ml/min. The mass spectrometer (Quattro Ultima-Pt; Micromass, Waters Ltd., Manchester, UK) was operated in a positive ion multiple reaction monitoring mode. E2110 was monitored using mass transitions of 490.4/459.2. Tamsulosin was used as an internal standard, and was monitored using a mass transition of 409.3/200.0. The lower limit of quantification of E2110 in plasma was 0.5 ng/mL.

The test system of data set [1] is 5-HT1A receptors. The experiment in a line: [35S]guanosine-5'-O-(3-thio)-triphosphate binding studies. Conditions: stated in introduction, no data shown. Format: biochemical.
The subject of data set [2] is 5-HT1A receptors. The experiment in a line: Effect compartment model simulation of 5-HT1A RO in female rats. More on the design: species or system female SD rats. Conditions: for simulated 5-HT1A RO: DRN. The source says:
The effect compartment model is illustrated in Figure 2. The mean plasma concentration profile of E2110 in each of four rats was fitted by two-compartment model with first order absorption and elimination. A sigmoid Emax model (Equation 4) based on the concentration in the effect compartment was fitted to the PD (RO) data. PK and PD models were linked using an effect compartment model described by the following equation: […]
where Cp and Ce are concentrations of E2110 in the plasma and effect compartments, respectively, and ke0 represents the equilibration rate constant for the effect compartment. PK and PD parameters were estimated by using […] (Version 2.01, MicroMath Research, UT, USA).

Another data set deals with T1, CYP3A4 (Homo sapiens, UniProt P08684).
T1 construct: from tissue; host or cells: human liver microsomes
T1 sequence (P08684 whole entry): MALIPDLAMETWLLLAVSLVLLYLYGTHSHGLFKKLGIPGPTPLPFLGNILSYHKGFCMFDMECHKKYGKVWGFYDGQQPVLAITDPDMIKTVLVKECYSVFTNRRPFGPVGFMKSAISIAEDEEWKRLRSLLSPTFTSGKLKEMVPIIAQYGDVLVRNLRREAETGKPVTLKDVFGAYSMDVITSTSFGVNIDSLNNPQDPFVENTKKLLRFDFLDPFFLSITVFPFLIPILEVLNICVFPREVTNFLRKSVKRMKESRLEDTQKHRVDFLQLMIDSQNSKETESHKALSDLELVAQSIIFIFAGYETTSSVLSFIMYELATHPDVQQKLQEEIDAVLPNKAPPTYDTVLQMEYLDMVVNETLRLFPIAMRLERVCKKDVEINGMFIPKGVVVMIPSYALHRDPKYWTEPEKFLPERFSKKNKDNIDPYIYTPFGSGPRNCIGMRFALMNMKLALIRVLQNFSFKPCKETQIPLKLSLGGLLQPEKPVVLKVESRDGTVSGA
The experiment in a line: Metabolism in human liver microsomes. It is filed as in vitro ADME. Conditions: unpublished results.

Where two headings read alike, the source gives them in different places.

Take `CNC(=O)c1ccc2ccn(C3CCN(CCc4c(OC)ccc5c4OC(C)(C)CC5=O)CC3)c2c1.O=C(O)/C=C/C(=O)O` [E2110, 1-{1-[2-(7-Methoxy-2,2-dimethyl-4-oxochroman-8-yl)ethyl]piperidine-4-yl}-N-methyl-1H-indole-6-carboxamide fumarate]: in the data set “PK study in rats (oral)” (Female SD), the highest level (Cmax) was 126 ng/mL, the Tmax came out at 1 h, the half-life is 2.6 h and the AUC(0-t) is 488 ng·h/mL. Further, in “PK study in rats (oral)” (Male SD), the Cmax was found to be 48.1 ng/mL, the Tmax was found to be 0.5 h, the half-life was 1.5 h and the AUC(0-t) is 71.8 ng·h/mL. For the same compound, the “functional character at 5-HT1A receptors” value in the data set on 5-HT1A receptors [1] was “full antagonist”. The “simulated RO at minimum effective doses during micturition monitoring period” value with 5-HT1A receptors [2] (0.1 mg/kg (8-OH-DPAT model, 1-2 hours postdose) and 0.3 mg/kg (SCL model, 0.5-1 hour postdose)) was “around 60%”. Further, the “simulated 5-HT1A RO” value in the data set with 5-HT1A receptors [2] (0.1 mg/kg oral, 1-2 hours after dosing, 8-OH-DPAT treatment) is on record as 60-70%. In addition, the “simulated 5-HT1A RO” value with 5-HT1A receptors [2] (0.3 mg/kg oral, 0.5-1 hour after dosing, SCL model) is listed as 60-80%. The “5-HT1A RO required for significant effects on micturition” value in the data set on 5-HT1A receptors [2] (inferred from simulated RO and pharmacological tests) is not below 60%. At CYP3A4, the metabolizing enzyme result is listed as “primarily metabolized by CYP3A4”.
